Results from patent US11377442B2, “Small molecule agonists and antagonists of NR2F6 activity” (ZANDER THERAPEUTICS, INC., priority 2016, dated 2022).

Legend:
Assay type in all cases: cell-based
HEK293 pGL4 = assay: Firefly_pGL signal, cmpd/DMSO (pGL4 control cells); conditions: Homo sapiens, HEK293, Table 14, read-out: Firefly pGL4, cmpd/DMSO (mean)
NR2F6 = biological target: T1, NR2F6 (Homo sapiens, UniProt P10588); assay: NR2F6 agonist screening, Firefly signal cmpd/DMSO; conditions: for Firefly F4, cmpd/DMSO (mean): Table 14; for activity (in words): screening result
T1 construct: expressed in transfected cells; also transient transfection
T1 sequence (P10588 1-404): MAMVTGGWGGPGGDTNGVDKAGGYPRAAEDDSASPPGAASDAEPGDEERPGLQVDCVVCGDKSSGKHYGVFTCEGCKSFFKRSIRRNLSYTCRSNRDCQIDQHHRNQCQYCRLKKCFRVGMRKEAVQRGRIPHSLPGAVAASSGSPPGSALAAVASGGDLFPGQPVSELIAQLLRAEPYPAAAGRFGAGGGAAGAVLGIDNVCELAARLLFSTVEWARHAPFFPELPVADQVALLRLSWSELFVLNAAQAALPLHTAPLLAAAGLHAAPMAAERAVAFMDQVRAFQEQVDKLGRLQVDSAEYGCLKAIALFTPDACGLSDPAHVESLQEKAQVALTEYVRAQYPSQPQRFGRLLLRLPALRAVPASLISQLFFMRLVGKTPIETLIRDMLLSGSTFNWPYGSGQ

Renilla = Renilla signal in NR2F6 agonist screening, cmpd/DMSO; conditions: Renilla, Table 14, read-out: Renilla F4, cmpd/DMSO (mean)

CCOC(=O)c1cnc2c(C)cc(C)cc2c1NCc1ccccc1 [Compound Z74]
fold induction at 2 µM (HEK293 pGL4): 0.7 | fold induction at 10 µM (HEK293 pGL4): 0.6 | fold induction at 40 µM (HEK293 pGL4): 0.7 | Firefly F4, cmpd/DMSO (mean) (NR2F6; 2 uM): 0.7 | Firefly F4, cmpd/DMSO (mean) (NR2F6; 10 uM): 0.5 | Firefly F4, cmpd/DMSO (mean) (NR2F6; 40 uM): 0.7 | fold induction at 2 µM (Renilla): 0.8 | fold induction at 10 µM (Renilla): 0.2 | fold induction at 40 µM (Renilla): 0.3

Cc1cc(C)n2nc(CNS(=O)(=O)c3ccc(Cl)cc3)nc2n1 [Compound Z91]
fold induction at 2 µM (HEK293 pGL4): 1 | fold induction at 10 µM (HEK293 pGL4): 1 | fold induction at 40 µM (HEK293 pGL4): 1.1 | Firefly F4, cmpd/DMSO (mean) (NR2F6; 2 uM): 1.0 | Firefly F4, cmpd/DMSO (mean) (NR2F6; 10 uM): 1.1 | Firefly F4, cmpd/DMSO (mean) (NR2F6; 40 uM): 1.3 | fold induction at 2 µM (Renilla): 1.1 | fold induction at 10 µM (Renilla): 1.1 | fold induction at 40 µM (Renilla): 0.8

CCOC(=O)c1cnc2c(C)cc(C)cc2c1N1CCC(CO)CC1 [Compound Z79]
fold induction at 2 µM (HEK293 pGL4): 0.8 | fold induction at 10 µM (HEK293 pGL4): 0.5 | fold induction at 40 µM (HEK293 pGL4): 0.8 | Firefly F4, cmpd/DMSO (mean) (NR2F6; 2 uM): 0.9 | Firefly F4, cmpd/DMSO (mean) (NR2F6; 10 uM): 0.5 | Firefly F4, cmpd/DMSO (mean) (NR2F6; 40 uM): 0.3 | fold induction at 2 µM (Renilla): 0.9 | fold induction at 10 µM (Renilla): 0.6 | fold induction at 40 µM (Renilla): 0.2

CCOC(=O)c1cnc2c(C)cc(C)cc2c1NCCCN(C)C [Compound Z54]
fold induction at 2 µM (HEK293 pGL4): 1.1 | fold induction at 10 µM (HEK293 pGL4): 1.9 | fold induction at 40 µM (HEK293 pGL4): 0.8 | Firefly F4, cmpd/DMSO (mean) (NR2F6; 2 uM): 0.8 | Firefly F4, cmpd/DMSO (mean) (NR2F6; 10 uM): 1.6 | Firefly F4, cmpd/DMSO (mean) (NR2F6; 40 uM): 0.6 | activity (in words) (NR2F6): particularly good activity | fold induction at 2 µM (Renilla): 0.7 | fold induction at 10 µM (Renilla): 0.3 | fold induction at 40 µM (Renilla): 0.2

Cc1cc(C)n2nc(CNS(=O)(=O)c3c(F)c(F)c(F)c(F)c3F)nc2n1 [Compound Z55]
fold induction at 2 µM (HEK293 pGL4): 0.8 | fold induction at 10 µM (HEK293 pGL4): 0.7 | fold induction at 40 µM (HEK293 pGL4): 2.3 | Firefly F4, cmpd/DMSO (mean) (NR2F6; 2 uM): 1.1 | Firefly F4, cmpd/DMSO (mean) (NR2F6; 10 uM): 0.8 | Firefly F4, cmpd/DMSO (mean) (NR2F6; 40 uM): 2.0 | activity (in words) (NR2F6): particularly good activity | fold induction at 2 µM (Renilla): 0.8 | fold induction at 10 µM (Renilla): 0.3 | fold induction at 40 µM (Renilla): 0.1

Cc1ccc(NC(=O)c2noc3c2CC(C(C)(C)C)CC3)cc1C (stereo not drawn) [Compound C303]
fold induction at 2 µM (HEK293 pGL4): 1.1 | fold induction at 10 µM (HEK293 pGL4): 1.1 | fold induction at 40 µM (HEK293 pGL4): 1.1 | Firefly F4, cmpd/DMSO (mean) (NR2F6; 2 uM): 1.2 | Firefly F4, cmpd/DMSO (mean) (NR2F6; 10 uM): 0.9 | Firefly F4, cmpd/DMSO (mean) (NR2F6; 40 uM): 0.9 | fold induction at 2 µM (Renilla): 1 | fold induction at 10 µM (Renilla): 0.8 | fold induction at 40 µM (Renilla): 1

Cc1cc(C)c2ncc(C(N)=O)c(NCCCN(C)C)c2c1 [Compound Z83]
fold induction at 2 µM (HEK293 pGL4): 1 | fold induction at 10 µM (HEK293 pGL4): 0.9 | fold induction at 40 µM (HEK293 pGL4): 0.5 | Firefly F4, cmpd/DMSO (mean) (NR2F6; 2 uM): 1.2 | Firefly F4, cmpd/DMSO (mean) (NR2F6; 10 uM): 0.6 | Firefly F4, cmpd/DMSO (mean) (NR2F6; 40 uM): 0.7 | fold induction at 2 µM (Renilla): 1 | fold induction at 10 µM (Renilla): 0.8 | fold induction at 40 µM (Renilla): 0.3

CCOC(=O)c1cnc2c(C)cccc2c1NCCCN(C)C [Compound Z90]
fold induction at 2 µM (HEK293 pGL4): 0.7 | fold induction at 10 µM (HEK293 pGL4): 2.4 | fold induction at 40 µM (HEK293 pGL4): 0.7 | Firefly F4, cmpd/DMSO (mean) (NR2F6; 2 uM): 0.7 | Firefly F4, cmpd/DMSO (mean) (NR2F6; 10 uM): 2.5 | Firefly F4, cmpd/DMSO (mean) (NR2F6; 40 uM): 0.4 | fold induction at 2 µM (Renilla): 0.9 | fold induction at 10 µM (Renilla): 0.2 | fold induction at 40 µM (Renilla): 0.1

Cc1cc(C)nc(Sc2nnc(-c3ccc(C)c(S(=O)(=O)N4CCOCC4)c3)c3ccccc23)n1 [Compound Z56]
fold induction at 2 µM (HEK293 pGL4): 1.2 | fold induction at 10 µM (HEK293 pGL4): 8.9 | fold induction at 40 µM (HEK293 pGL4): 1.2 | Firefly F4, cmpd/DMSO (mean) (NR2F6; 2 uM): 1.2 | Firefly F4, cmpd/DMSO (mean) (NR2F6; 10 uM): 2.1 | Firefly F4, cmpd/DMSO (mean) (NR2F6; 40 uM): 0.5 | activity (in words) (NR2F6): particularly good activity | fold induction at 2 µM (Renilla): 0.9 | fold induction at 10 µM (Renilla): 0.3 | fold induction at 40 µM (Renilla): 0.2

COC(=O)c1cnc2c(C)cc(C)cc2c1NCCCN(C)C [Compound Z81]
fold induction at 2 µM (HEK293 pGL4): 1.4 | fold induction at 10 µM (HEK293 pGL4): 0.9 | fold induction at 40 µM (HEK293 pGL4): 0.7 | Firefly F4, cmpd/DMSO (mean) (NR2F6; 2 uM): 2.4 | Firefly F4, cmpd/DMSO (mean) (NR2F6; 10 uM): 0.7 | Firefly F4, cmpd/DMSO (mean) (NR2F6; 40 uM): 0.4 | fold induction at 2 µM (Renilla): 1.1 | fold induction at 10 µM (Renilla): 0.3 | fold induction at 40 µM (Renilla): 0.3
